Columns and labels:
[1] = system: F4ac-expressing E. coli strain GIS 26; assay: In vitro villous adhesion assay after treatment of porcine villi with agents (control strain); assay type: cell-based, Escherichia coli; conditions: villi treated 1 h at room temperature; 1% Triton X-100; 10 mM NaIO4 in 0.2M sodium acetate pH 4.5
Excerpt: (§1) The nature of the F18R on porcine small intestinal villous enterocytes was investigated using an in vitro villous adhesion inhibition assay (Cox, E., Houvenaghel, A., 1993. Vet. Microbiol. 34(1), 7-18; Verdonck, F., Cox, E., van Gog, K., Van der Stede, Y., Duchateau, L., Deprez, P., Goddeeris, B. M., 2002. Vaccine 20(23-24), 2995-3004). Briefly, a 20 cm intestinal segment was collected from the mid jejunum of a euthanized pig, rinsed three times with ice cold PBS, and fixed with Krebs-Henseleit buffer (160 mM, pH 7.4) containing 1% (v/v) formaldehyde for 30 min at 4° C. Thereafter, the villi were gently scraped from the mucosae with a glass slide and stored in Krebs-Henseleit buffer at 4° C. Treatment of villi with acetone, methanol, 1% Triton® X-100, 10 mM NaIO4 in 0.2M sodium acetate, pH 4.5, or 0.2M sodium acetate, pH 4.5, without NaIO4, respectively, was performed at room temperature on a rotating wheel in a volume of 500 μl during 1 h. Next, the villi were washed 6 times with Krebs-Henseleit buffer followed by addition of 4×10^8 bacteria of the F18 positive reference E. coli strain (107/86), or the F4ac-expressing E. coli strain GIS 26, to an average of 50 villi in a total volume of 500 μl PBS, supplemented with 1% (w/v) D-mannose in order to prevent adhesion mediated by type 1 pili. These mixtures were incubated at room temperature for 1 h while being gently shaken. Villi were examined by phase-contrast microscopy at a magnification of 600, and the number of bacteria adhering along 50 μm brush border was quantitatively evaluated by counting the number of adhering bacteria at 20 randomly selected places, after which the mean bacterial adhesion was calculated.
(§2) To examine the character of the F18R, intestinal villi isolated from four pigs were treated with different agents that affect lipids or carbohydrates on the enterocyte cell membrane. Treatment was followed by assessment of adhesion of F18-fimbriated E. coli to the villus epithelium.

[2] = system: F18 positive reference E. coli strain (107/86); assay: In vitro villous adhesion assay after treatment of porcine villi with agents; assay type: cell-based, Escherichia coli; conditions: villi of four pigs treated 1 h at room temperature; 1% Triton X-100; 10 mM NaIO4 in 0.2M sodium acetate pH 4.5
Excerpt: as §1, §2

Compound | Adhesion of control F4ac-fimbriated E. coli strain to porcine intestinal villi after treatment of the villi [1] | Adhesion of F18-fimbriated E. coli to porcine intestinal villi after treatment of the villi [2]
CO [methanol] | no or only little effect | completely abolished
Triton® X-100 | no or only little effect | completely abolished
